# Experimental data from the supplement of paper PMC9663587.
# Experiments:
# Ceritinib/LDK378 = compound: Cc1cc(Nc2ncc(Cl)c(Nc3ccccc3S(=O)(=O)C(C)C)n2)c(OC(C)C)cc1C1CCNCC1 [Ceritinib/LDK378]
# THZ-P1-2 = compound: CN(C)C/C=C/C(=O)NC1=CC=C(C=C1)C(=O)NC2=CC=CC(=C2)NC3=NC=NC(=C3)C4=CNC5=CC=CC=C54 [THZ-P1-2]
# [1] = compound: CCCCOc1c(C(=O)c2c(F)cc(C)cc2F)c[nH]c2nncc1-2
# Saracatinib/AZD0530 = compound: CN1CCN(CCOc2cc(OC3CCOCC3)c3c(Nc4c(Cl)ccc5c4OCO5)ncnc3c2)CC1 [Saracatinib/AZD0530]
# Luminespib/NVP-AUY922 = compound: CCNC(=O)c1noc(-c2cc(C(C)C)c(O)cc2O)c1-c1ccc(CN2CCOCC2)cc1 [Luminespib/NVP-AUY922]
# BSJ-01-175 = compound: CN(C)C/C=C/C(=O)Nc1ccc(O[C@@H]2CCC[C@@H](Nc3ncc(Cl)c(-c4c[nH]c5ccccc45)n3)C2)cc1 [BSJ-01-175]
# Neratinib/HKI272 = compound: CCOc1cc2ncc(C#N)c(Nc3ccc(OCc4ccccn4)c(Cl)c3)c2cc1NC(=O)/C=C/CN(C)C [Neratinib/HKI272]; experiment: increase in dead-cell fraction, 72 h; higher = more death;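 also: breast cancer cell lines in 384-well plates, stained with Hoechst plus LIVE/DEAD far red dye and imaged, cells above an LDR intensity threshold counted dead, Hoechst-negative corpses included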
# THZ1 = compound: CN(C)C/C=C/C(=O)Nc1ccc(C(=O)Nc2cccc(Nc3ncc(Cl)c(-c4c[nH]c5ccccc45)n3)c2)cc1 [THZ1]; experiment: as above
# [2] = compound: CCN1CCN(Cc2ccc(Nc3ncc(F)c(-c4cc(F)c5nc(C)n(C(C)C)c5c4)n3)nc2)CC1; experiment: as above
# YKL-5-124 = compound: C=CC(=O)Nc1ccc(C(=O)Nc2[nH]nc3c2CN(C(=O)N[C@H](CN(C)C)c2ccccc2)C3(C)C)cc1 [YKL-5-124]; experiment: as above
# THZ531 = compound: CN(C)C/C=C/C(=O)Nc1ccc(C(=O)N2CCC[C@@H](Nc3ncc(Cl)c(-c4c[nH]c5ccccc45)n3)C2)cc1 [THZ531]; experiment: as above
# LEE011/Ribociclib = compound: CN(C)C(=O)c1cc2cnc(Nc3ccc(N4CCNCC4)cn3)nc2n1C1CCCC1 [LEE011/Ribociclib]; experiment: as above
# [3] = compound: CC(=O)c1c(C)c2cnc(Nc3ccc(N4CCNCC4)cn3)nc2n(C2CCCC2)c1=O; experiment: as above
# BSJ-03-123 = compound: CC(=O)c1c(C)c2cnc(Nc3ccc(N4CCN(CCOCCOCCOCCNC(=O)COc5cccc6c5C(=O)N(C5CCC(=O)NC5=O)C6=O)CC4)cn3)nc2n(C2CCCC2)c1=O [BSJ-03-123]; experiment: as above
# Flavopiridol = compound: CN1CC[C@H](c2c(O)cc(O)c3c(=O)cc(-c4ccccc4Cl)oc23)[C@H](O)C1 [Flavopiridol]; experiment: as above
# [4] = compound: CCc1cnn2c(NCc3ccc[n+]([O-])c3)cc(N3CCCC[C@H]3CCO)nc12; experiment: as above
# 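For GR50, 72 h in this document: breast cancer and non-malignant breast epithelial cell lines, Deep Dye Drop or Dye Drop imaging, nine half-log doses, GR normalized to time-zero plates and DMSO-only controls.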
cell line,measurement,setting,value
BT474,"GR50, 72 h",Ceritinib/LDK378,> 10 µM
same,"GR50, 72 h",THZ-P1-2,5.82 µM
same,"GR50, 72 h",[1],> 10 µM
same,"GR50, 72 h",Saracatinib/AZD0530,0.896 µM
same,"GR50, 72 h",Luminespib/NVP-AUY922,0.00444 µM
same,"GR50, 72 h",BSJ-01-175,0.0747 µM
same,increase in dead-cell fraction,Neratinib/HKI272; 0.0003162 µM,0.0014
same,increase in dead-cell fraction,Neratinib/HKI272; 0.001 µM,0.0075
same,increase in dead-cell fraction,Neratinib/HKI272; 0.003162 µM,0.0456
same,increase in dead-cell fraction,Neratinib/HKI272; 0.01 µM,0.235
same,increase in dead-cell fraction,Neratinib/HKI272; 0.03162 µM,0.359
same,increase in dead-cell fraction,Neratinib/HKI272; 0.1 µM,0.369
same,increase in dead-cell fraction,Neratinib/HKI272; 0.3162 µM,0.38
same,increase in dead-cell fraction,Neratinib/HKI272; 1 µM,0.438
same,increase in dead-cell fraction,Neratinib/HKI272; 3.162 µM,0.471
same,increase in dead-cell fraction,THZ1; 0.0001 µM,-0.0007
same,increase in dead-cell fraction,THZ1; 0.0003162 µM,-0.0012
same,increase in dead-cell fraction,THZ1; 0.001 µM,-0.0015
same,increase in dead-cell fraction,THZ1; 0.003162 µM,-0.0036
same,increase in dead-cell fraction,THZ1; 0.01 µM,0.0152
same,increase in dead-cell fraction,THZ1; 0.03162 µM,0.0225
same,increase in dead-cell fraction,THZ1; 0.1 µM,0.175
same,increase in dead-cell fraction,THZ1; 0.3162 µM,0.221
same,increase in dead-cell fraction,THZ1; 1 µM,0.139
same,increase in dead-cell fraction,[2]; 0.001 µM,-0.005
same,increase in dead-cell fraction,[2]; 0.003162 µM,-0.0017
same,increase in dead-cell fraction,[2]; 0.01 µM,0.0057
same,increase in dead-cell fraction,[2]; 0.03162 µM,0.0071
same,increase in dead-cell fraction,[2]; 0.1 µM,0.0213
same,increase in dead-cell fraction,[2]; 0.3162 µM,0.01
same,increase in dead-cell fraction,[2]; 1 µM,0.0104
same,increase in dead-cell fraction,[2]; 3.162 µM,0.0016
same,increase in dead-cell fraction,[2]; 10 µM,0.0194
same,increase in dead-cell fraction,YKL-5-124; 0.001 µM,0.0145
same,increase in dead-cell fraction,YKL-5-124; 0.003162 µM,0.0218
same,increase in dead-cell fraction,YKL-5-124; 0.01 µM,0.019
same,increase in dead-cell fraction,YKL-5-124; 0.03162 µM,0.0189
same,increase in dead-cell fraction,YKL-5-124; 0.1 µM,0.0303
same,increase in dead-cell fraction,YKL-5-124; 0.3162 µM,0.0351
same,increase in dead-cell fraction,YKL-5-124; 1 µM,0.0209
same,increase in dead-cell fraction,YKL-5-124; 3.162 µM,0.0235
same,increase in dead-cell fraction,YKL-5-124; 10 µM,0.182
same,increase in dead-cell fraction,THZ531; 0.0001 µM,-0.0031
same,increase in dead-cell fraction,THZ531; 0.0003162 µM,0.0048
same,increase in dead-cell fraction,THZ531; 0.001 µM,0.003
same,increase in dead-cell fraction,THZ531; 0.003162 µM,-0.0009
same,increase in dead-cell fraction,THZ531; 0.01 µM,-0.0036
same,increase in dead-cell fraction,THZ531; 0.03162 µM,0.0037
same,increase in dead-cell fraction,THZ531; 0.1 µM,0.17
same,increase in dead-cell fraction,THZ531; 0.3162 µM,0.413
same,increase in dead-cell fraction,THZ531; 1 µM,0.229
same,increase in dead-cell fraction,LEE011/Ribociclib; 0.001 µM,0.0109
same,increase in dead-cell fraction,LEE011/Ribociclib; 0.003162 µM,0.0057
same,increase in dead-cell fraction,LEE011/Ribociclib; 0.01 µM,0.0072
same,increase in dead-cell fraction,LEE011/Ribociclib; 0.03162 µM,0.0158
same,increase in dead-cell fraction,LEE011/Ribociclib; 0.1 µM,0.0086
same,increase in dead-cell fraction,LEE011/Ribociclib; 0.3162 µM,0.0122
same,increase in dead-cell fraction,LEE011/Ribociclib; 1 µM,0.0254
same,increase in dead-cell fraction,LEE011/Ribociclib; 3.162 µM,0.0157
same,increase in dead-cell fraction,LEE011/Ribociclib; 10 µM,0.0109
same,increase in dead-cell fraction,[3]; 0.0003162 µM,-0.0048
same,increase in dead-cell fraction,[3]; 0.001 µM,-0.0003
same,increase in dead-cell fraction,[3]; 0.003162 µM,-0.0027
same,increase in dead-cell fraction,[3]; 0.01 µM,0.0006
same,increase in dead-cell fraction,[3]; 0.03162 µM,0.0074
same,increase in dead-cell fraction,[3]; 0.1 µM,0.0103
same,increase in dead-cell fraction,[3]; 0.3162 µM,0.0169
same,increase in dead-cell fraction,[3]; 1 µM,0.0196
same,increase in dead-cell fraction,[3]; 3.162 µM,0.0256
same,increase in dead-cell fraction,BSJ-03-123; 0.001 µM,0.0078
same,increase in dead-cell fraction,BSJ-03-123; 0.003162 µM,0.0052
same,increase in dead-cell fraction,BSJ-03-123; 0.01 µM,0.0155
same,increase in dead-cell fraction,BSJ-03-123; 0.03162 µM,0.004
same,increase in dead-cell fraction,BSJ-03-123; 0.1 µM,0.0074
same,increase in dead-cell fraction,BSJ-03-123; 0.3162 µM,0.0224
same,increase in dead-cell fraction,BSJ-03-123; 1 µM,0.0243
same,increase in dead-cell fraction,BSJ-03-123; 3.162 µM,0.0241
same,increase in dead-cell fraction,BSJ-03-123; 10 µM,0.0415
same,increase in dead-cell fraction,Flavopiridol; 0.0001 µM,0.0042
same,increase in dead-cell fraction,Flavopiridol; 0.0003162 µM,0.0024
same,increase in dead-cell fraction,Flavopiridol; 0.001 µM,-0.0008
same,increase in dead-cell fraction,Flavopiridol; 0.003162 µM,0.0046
same,increase in dead-cell fraction,Flavopiridol; 0.01 µM,-0.0017
same,increase in dead-cell fraction,Flavopiridol; 0.03162 µM,0.003
same,increase in dead-cell fraction,Flavopiridol; 0.1 µM,0.0067
same,increase in dead-cell fraction,Flavopiridol; 0.3162 µM,0.0397
same,increase in dead-cell fraction,Flavopiridol; 1 µM,0.274
same,increase in dead-cell fraction,[4]; 0.0001 µM,-0.0025
same,increase in dead-cell fraction,[4]; 0.0003162 µM,-0.0015
same,increase in dead-cell fraction,[4]; 0.001 µM,-0.0013
same,increase in dead-cell fraction,[4]; 0.003162 µM,-0.002
same,increase in dead-cell fraction,[4]; 0.01 µM,0.0053
same,increase in dead-cell fraction,[4]; 0.03162 µM,0.207
same,increase in dead-cell fraction,[4]; 0.1 µM,0.246
same,increase in dead-cell fraction,[4]; 0.3162 µM,0.265
same,increase in dead-cell fraction,[4]; 1 µM,0.249
